Where a SMILES comes first, the peptide text is derived from it. The star is where a group is joined. Palmitoyl = CCCCCCCCCCCCCCCC(=O)*

Data set [1] concerns 4T1 tumor. The experiment in a line: Biodistribution in tumor‐bearing mice. Type of data set: in vivo, mouse. The settings on record: 4T1, 2 days after 50 nmol IV, tissue homogenates, plate reader, mean ± SEM. As to the method: For biodistribution studies in 4T1 and MC38 tumor models in wild type, ApoA1 ‐/‐, or LDL‐R ‐/‐ mice, 100 µL of ICG conjugated PAs or free ICG (0.5 mM) were intravenously injected. 2 days after injection, the mice were euthanized, and tumors and organs were excised and analyzed in the IVIS (PerkinElmer) for ICG.
To determine the percentage of the injected dose of SA‐E in tissues, 4T1 tumor, spleen, kidney, lung, and colon tissues were harvested from 5 mice 2 days after ICG conjugated SA‐E (IV, 100 µL, 0.5 mM). Organ weights were measured for normalization. Tissues were homogenized in gentleMACS M Tube containing 1 mL of PBS and equipped with a 600 µm mesh strainer using a gentleMACS dissociator as described above. The resulting tissue homogenates were transferred into a 96‐well plate for fluorescence measurement using a microplate reader (TECAN Spark 20 M). Additionally, organ tissues from healthy mice without probe injection were harvested and homogenized to prepare calibration curves. ICG conjugated SA‐E was spiked into tissue samples at different concentrations, and fluorescence intensities were measured using a microplate reader (TECAN Spark 20 M). For biodistribution studies with 10 mol% ICG containing micelles, ICG conjugated PAs were mixed with maleimide blocked PAs to achieve a final concentration of 0.25 mM ICG conjugated PAs and 2.5 mM total peptides. […]

For data set [2], the system named is small intestinal adenomas and colon polyps. The experiment in a line: Detection of intestinal lesions in APC^min mice. Type of data set: in vivo, mouse. As to the method: For tumor accumulation studies in subcutaneous (HCT‐116, A375, TRAMP‐C2, MC38, LLC1, RG2, PDX cell lines, wild type or SR‐B1 ‐/‐ TRAMP‐C2, and wild type or LDL‐R ‐/‐ HeLa), intradermal (A375), or fat pad (4T1 and MCF‐7) tumors, cells were implanted as described above. When the tumors reached a size around ≈0.3–1 cm, mice were injected intravenously with 100 µL of ICG conjugated PAs (in PBS, 0.5 mM) or free ICG (in PBS, 0.5 mM). After probe injections, mice were imaged using the IVIS Spectrum (PerkinElmer) with excitation and emission wavelengths of 745 and 820 nm, respectively, at the specified time points. Living Image (PerkinElmer) software was used for all analyses. For MMTV mice experiments, mice were injected intravenously weekly with SA‐E (100 µL PBS, 0.5 mM) between 71 and 85 days of age and imaged 2 days later in the IVIS. […] SA‐E was injected intravenously (100 µL PBS, 0.5 mM), 2 days later the intestinal tissue was harvested, washed, and analyzed in the IVIS for ICG.

Data set [3] is described as follows: ICG fluorescence in fractions of collected blood (plasma, WBC, RBC). The settings on record: mouse blood 1 h after 50 nmol IV; average. Type of data set: in vivo.
Data set [4] relates to TRAMP‐C2 mouse prostate cancer cells. The data set can be described thus: Uptake of SA‐E by wild type or SR‐B1 knockout cells. The settings on record: Cy5 SA‐E 20 µM, 10% FBS DMEM. Type of data set: cell-based. The method, then:
For SR‐B1 studies, an equal number of wells in a black walled, glass bottom 96‐well plate were seeded with either wild type or SR‐B1‐/‐ TRAMP‐C2 cells and grown to near confluency, as above. The Cy5 conjugated SA‐E was diluted in 10% FBS containing DMEM and incubated at room temperature for 30 min. All media from the wells was aspirated. Four wells of each cell type received 100 µL aliquots with SA‐E (20 µM). The plate was incubated for 30 min, as above. Following the methods above, wells were washed with PBS, media was added, and the plate was returned to the incubator for 1 h. Finally, Hoechst staining and fluorescence imaging were performed using a Leica Thunder DMi8 fluorescent microscope, as described above.

Take `CCCCCCCCCCCCCCCC(=O)NCC(=O)NCC(=O)NCC(=O)N[C@@H](Cc1c[nH]cn1)C(=O)N[C@@H](C)C(=O)N[C@@H](C)C(=O)N[C@@H](CC(N)=O)C(=O)NCC(=O)N[C@@H](CCC(=O)O)C(=O)N[C@@H](CCC(=O)O)C(=O)N[C@@H](CS)C(=O)N[C@@H](CCC(=O)O)C(=O)O` [SA‐E] (Palmitoyl-GGGHAANGEECE-OH): the “concentration in the tumor” value in data set [1] (5 mice) is 1.9% ± 0.4 %ID / g tissue. The concentration in liver in data set [1] is 0.8% ± 0.1 %ID / g tissue. For the same compound, the colon polyps detected in data set [2] (3 APC^min mice) is given as 4/4. For the same compound, the “small intestinal adenomas detected” value in data set [2] (3 APC^min mice) is 71/71. The “Colon, SA-E Negative lesions” value in data set [2] (mouse 1, of 2 lesions) is listed as 0; in data set [2] (mouse 2, of 1 lesion), 0; in data set [2] (mouse 3, of 1 lesion), 0. Also, the “Colon, SA-E Positive lesions” value worked out at 2 in data set [2] (mouse 1, of 2 lesions); 1 in data set [2] (mouse 2, of 1 lesion); 1 in data set [2] (mouse 3, of 1 lesion). In addition, the “Small Intestine, SA-E Negative lesions” value was 0 in data set [2] (mouse 1, of 15 lesions); 0 in data set [2] (mouse 2, of 22 lesions); 0 in data set [2] (mouse 3, of 34 lesions). Moreover, the “Small Intestine, SA-E Positive lesions” value in data set [2] (mouse 1, of 15 lesions) is 15; in data set [2] (mouse 2, of 22 lesions), 22; in data set [2] (mouse 3, of 34 lesions), 34. Further, in data set [3], the “share of fluorescence in blood plasma” value is recorded as 98.9%. The “uptake in SR‐B1‐/‐ cells compared to wild type” value in data set [4] is listed as “did not observe any significant change”.
